# Tested on: metastatic uveal melanoma
# Experiment: Phase Ib trial of intermittent selumetinib: clinical efficacy (RECIST v1.1, PFS, OS)
# Format: in vivo, human
# Source text: This was a multi-center, open-label, phase Ib study conducted at Columbia University Irving Medical Center (New York, NY), University of Texas MD Anderson Cancer Center (Houston, TX), and Memorial Sloan Kettering Cancer Center (New York, NY). The primary objective of this study was to determine the maximum tolerated dose (MTD) of selumetinib administered using an intermittent dosing schedule in patients with metastatic UM. […] Exploratory objectives included pharmacodynamic (PD) assessment of target inhibition of the MEK pathway.
# Descriptive statistics were used to report baseline characteristics of the study population. The observed rate and estimated rate of DLT were reported for each dose level along with the 90% probability interval. The number and percentage of patients with adverse events were summarized taking the highest grade and reported by grade for AEs that were at least possibly related to treatment. AEs with at prevalence of least 10% were reported separately. The overall response rate (ORR) was defined as a confirmed complete response (CR) or partial response (PR) according to RECIST 1.1 criteria ([18]) and reported by dose level. Disease control rate (DCR) was defined as the percentage of patients with a confirmed CR, PR or stable disease. PFS was measured from date of enrollment until the date of progression or death, whichever occurred first. OS was defined as the time from the date of registration to the date of death by any cause.
# Imaging was obtained at baseline, at 8 weeks after start of study treatment, and then every 8 weeks thereafter. Imaging of the chest, abdomen, and pelvis was required at each time point, with contrast enhanced MRI of the liver performed whenever possible. Response was assessed using RECIST v.1.1 criteria by investigator assessment. Criteria for removal from study included radiographic or clinical disease progression, or unacceptable toxicity.
# [1] = All Levels, investigator assessed RECIST v1.1
# [2] = Level 1 (100 mg BID), investigator assessed RECIST v1.1
# [3] = Level 2 (125 mg BID), investigator assessed RECIST v1.1
# [4] = Level 3 (150 mg BID), investigator assessed RECIST v1.1
# [5] = Level 4 (175 mg BID), investigator assessed RECIST v1.1
smiles,measurement,setting,value
Cn1cnc2c(F)c(Nc3ccc(Br)cc3Cl)c(C(=O)NOCCO)cc21 [selumetinib],median PFS,125mg twice daily cohort,1.7 months
same,Complete Response (CR),[1],0
same,Partial Response (PR),[1],0
same,Median duration of Stable Disease,Level 1 (100 mg BID),7.1 months
same,Complete Response (CR),[2],0
same,Overall Response Rate (ORR),[2],0
same,Partial Response (PR),[2],0
same,Median Time to Progression (range),"Level 1 (100 mg BID), range 1.2-10.8",3.4 months (1.2-10.8)
same,Median duration of Stable Disease,Level 2 (125 mg BID),4.1 months
same,Complete Response (CR),[3],0
same,Overall Response Rate (ORR),[3],0
same,Partial Response (PR),[3],0
same,Median Time to Progression (range),"Level 2 (125 mg BID), range 0.9-5.5",1.7 months (0.9-5.5)
same,Median duration of Stable Disease,Level 3 (150 mg BID),4.9 months
same,Complete Response (CR),[4],0
same,Overall Response Rate (ORR),[4],0
same,Partial Response (PR),[4],0
same,Median Time to Progression (range),"Level 3 (150 mg BID), range 0.9-6.2",3.7 months (0.9-6.2)
same,Complete Response (CR),[5],0
same,Overall Response Rate (ORR),[5],0
same,Partial Response (PR),[5],0
same,"Progressive Disease (PD), patients/total (%)",[5],0
same,ORR,"all 29 patients, RECIST v1.1",0%
same,"best response of stable disease, percent of patients","at 8 weeks from treatment initiation, n=11 of 29",38%
same,median progression-free response by cohort,range across dose cohorts,1.7-3.7 months
same,median PFS,"total population (29 patients), 95% CI 1.7, 4.5",1.8 months
same,median OS,"total population (29 patients), 95% CI 5.3, 11.5",7.1 months
